We go through one compound from patent publication US20100093861A1, “TREATMENT OF INSULIN RESISTANCE OR DISEASES ASSOCIATED WITH INSULIN RESISTANCE” (Stevia ApS, priority 2006, published 2010).

The subject of one assay is diabetic KKAy-mice. The assay can be described thus: In vivo study of plasma concentrations of insulin, glucose and triglycerides in KKAy-mice after isosteviol or soybean protein (Example 1). The following applies: oral in diet. Here is the method: The following experiment was performed to investigate the effect of isosteviol (ISV) and soybean protein on plasma concentrations of insulin, glucose and triglycerides. Four experimental groups, each consisting of 10 KKAy-mice (obtained from Clea Japan, Tokyo, Japan) and one control group of 20 C57 mice (obtained from Taconic, Ry, Denmark), all 5 weeks old, were feed the following three test diets in a period of nine weeks. • A: standard chow diet (SCD)(ALTROMIN 1320, Brogaarden, Hørsholm). Diet A was fed to one experimental group and to the control group. • B: standard chow diet (SCD) (ALTROMIN 1320, Brogaarden, Hørsholm)+0.02 g/kg BW of ISV (Waco Chemicals, Osaka, Japan). • C: diet containing 50 weight-% standard chow+50 weight-% Soybean Protein (SBP) (NutriPharma, Oslo)
Hormones and lipids were measured from blood sample at start and end of the treatment period. Fasting blood glucose as well as body weight were measured once a week. […] The blood was taken from the tail of the animals.
Isosteviol (ISV) and Soybean Protein (SBP) were given orally. The SBP were incorporated in the food pellet and the ISV was dissolved in absolute ethanol, the solution was inoculated on the pellets and the ethanol was allowed to evaporate, leaving the ISV on the food pellet. All diets were adjusted for vitamins and minerals, so that all diets content the same amount. Beside that, water was given ad libitum and a light cycle of 12 hours/12 hours was used. The experiment was performed in accordance with the guidelines of the Danish Council on Animal Care.

For another assay, the system named is GLUT-2. Kind of assay: Gene expression in islets from diabetic KKAy-mice, real time RT-PCR (Example 2): GLUT-2. The class given is in vivo. The following applies: islets of KKAy-mice after nine weeks treatment, normalized to 18S rRNA. Here is the method:
(§1) A the end of the nine week period of the in vivo study in example 1 RNA was purified from Islets, muscle, liver and fat from the three experimental groups, using standard techniques as described in Kiergen, RNA easy.
(§2) Gene expression of PDX-1, IRS1, Beta2, 11beta-HSD-1, Akt1, C/EBP-alpha, CPT1, GLUT2, IGF1, IR and Ins1 was measured with Real time RT-PCR using Taq Man Assays normalized to 18S rRNA, using the standard protocol (ABI, USA). All reagents were obtained from (ABI, USA). All probes are standard probes obtainable from ABI, USA, under the specific probe code number, given in respect of each gene.
(In general: In qPCR the cycle at which signal appears reflects the starting amount.)

A further assay relates to C/EBP-alpha. Kind of assay: Gene expression in islets from diabetic KKAy-mice, real time RT-PCR (Example 2): C/EBP-alpha. The format is in vivo. The settings on record: islets of KKAy-mice after nine weeks treatment, normalized to 18S rRNA. Here is the method:
as §1, §2

A further assay relates to Beta2/neuroD. The assay can be described thus: Affymetrix gene chip analysis of KKAy islets: Beta2/neuroD. The class given is in vivo, mice. The settings on record: ISV vs. KKAy control islets, 9 weeks. Here is the method:
(§3) cRNA preparation and in vitro transcription: In total 6 Affymetrix arrays MOE430 2.0 probe array cartridge were used i.e. for analysis of 3 replicas for the KKAy control group and the ISV group, respectively. Each of the 6 samples consisted of pooled RNA from 3-4 KKAy mice. Preparation of target for hybridization was prepared from 340 ng of total RNA using MessageAmp™ II aRNA Amplification Kits (Ambion), according to the manufacturers instructions. Arrays were hybridised and scanned as described elsewhere (Kruhoffer et al., 2005).

A further assay relates to Akt1. The assay can be described thus: Affymetrix gene chip analysis of KKAy islets: Akt1. The class given is in vivo, mice. The settings on record: ISV vs. KKAy control islets, 9 weeks. Here is the method:
as §3

Another assay deals with Somatostatin. Kind of assay: Affymetrix gene chip analysis of KKAy islets: Somatostatin. The format is in vivo, mice. The following applies: ISV vs. KKAy control islets, 9 weeks. Here is the method:
as §3

For another assay, the system named is Nkx2-2. The assay can be described thus: Affymetrix gene chip analysis of KKAy islets: Nkx2-2. The following applies: ISV vs. KKAy control islets, 9 weeks. The format is in vivo, mice. Here is the method:
as §3

Assay [1] has as its system isolated NMRI mice islets. The assay can be described thus: Glucose stimulated insulin secretion (GSIS) from isolated NMRI mice islets. The class given is cell-based. Here is the method: For in vitro studies with steviol and ISV, we included adult female NMRI mice (Taconic, Ry Denmark), all weighing 22-25 g. We used 12 hours light/dark cycle. The Danish Council for Animal experiments has approved the study.
Islets were isolated by the collagenase digestion technique. In brief, the animals were anesthetized with pentobarbital (50 mg/kg intraperitoneally) and midline laparotomy was performed. The pancreas was retrogradely filled with 3 mL ice-cold Hanks balanced salt solution (([HBSS] Sigma Chemical, St Louis, Mo.) supplemented with 0.3 mg/ml collagenase Boehringer Mannheim GmbH, Germany). The pancreas was subsequently removed and incubated for 19 minutes at 37° C. After rinsing in HBSS, the islets were handpicked under a stereomicroscope and immediately transferred to a tubes containing 1 ml Trizol (Gibco/Invitrogene, Calsbad, Calif., USA). The islets isolated from the NMRI mice were incubated overnight at 37° C. and 95% normal atmosphere/5% CO2 in 10 ml RPMI 1640 containing 11.1 mmol/L glucose supplemented with penicillin G and 100 μg/mL streptomycin (all Gibco/Invitrogene, Calsbad, Calif., USA).
The NMRI female mice islets were rinsed twice with a modified Krebs-Ringer buffer (KRB) supplemented with 3.3 mmol/L glucose and 0.1% human serum albumin (Sigma). The KRB contained 125 mmol/L NaCl, 5.9 mmol/L KCl, 1.2 MgCl, 1.28 CaCl2 and 25 mmol/L HEPES (Ph 7.4: all Sigma). Single islets were incubated in 100 μL KRB containing glucose (3.3 and 16.7 mmol/L) and steviol/ISV according to the protocols (Jeppesen et al., 2000). After incubation (60 min), 50 μL of the medium was frozen for RIA analysis of insulin.

Where [2] appears, read: after 9 weeks of treatment, compared to standard chow diet, ISV 0.02 g/kg BW, SBP 50 weight-% of diet.

`C[C@@]12CC[C@@H]3[C@@](CC[C@H]4[C@@]3(C)CCC[C@@]4(C)C(=O)O)(CC1=O)C2` (single isomer, unassigned; ent-16) [ISV, ent-16-ketobeyeran-19-oic acid]: in the assay with diabetic KKAy-mice (setting [2]), the “reduction of plasma glucose concentration, SCD vs. treatment” value came to 73% and the “reduction of plasma insulin concentration, SCD vs. treatment” value worked out at 192%. Further, the “plasma triglyceride concentration, SCD vs. treatment” value in the assay with diabetic KKAy-mice (nine weeks treatment) turned out to be 101%. Besides, the “increased expression of GLUT-2 compared to standard diet” value in the assay with GLUT-2 was found to be 60%. Besides, the “decreased expression of C/EBPα compared to standard diet” value in the assay with C/EBP-alpha amounted to 49%. Also, in the assay with Beta2/neuroD, the “array: change of Beta2/neuroD expression” value is listed as “upregulation”. Besides, the “array: change of Akt1 expression” value in the assay with Akt1 is “no changes”. Further, the “array: increased expression in Somatostatin” value with Somatostatin was found to be 2.3 fold. In the assay with Nkx2-2, the “array: increased expression in Nkx2-2” value is listed as 2.3 fold. Besides, the “effect on insulin secretion at low glucose” value in assay [1] (3.3 mmol/L glucose, 60 min incubation) was “did not potentiate the insulin secretion”. Further, the “concentration giving apparent maximal effect on glucose stimulated insulin secretion” value in assay [1] (16.7 mmol/L glucose, 60 min incubation) was “approx. 10^−8 mol/l”. Moreover, the “potency on GSIS, isosteviol compared with steviol, at higher concentration” value in assay [1] (10^−8 mol/l-10^−6 mol/l, 16.7 mmol/l glucose, 60 minutes) is listed as “not found any significant difference”. Further, the “potency on GSIS, isosteviol compared with steviol, at low concentration” value in assay [1] (10^−10 mol/l, 16.7 mmol/l glucose, 60 minutes) is “significantly more potent than steviol”. Moreover, the “effect on insulin secretion stimulated by 16.7 mmol/L glucose” value in assay [1] (ISV 10^−12 mol/l-10^−8 mol/l, 60 min incubation) is “potentiated insulin secretion”.
